# Test results published in patent US11345713B2, “Compounds as modulators of TLR2 signaling” (Neuropore Therapies, inc., priority 2018, dated 2022).
# How the values were obtained:
# [1] = molecular target: T1, human TLR2 (Pam3CSK4, TLR1/2 agonist) in HEK-Blue hTLR2 cells (Homo sapiens, UniProt O60603); assay: HEK-Blue hTLR2 antagonism assay (SEAP reporter) with Pam3CSK4 as agonist; assay type: cell-based; details: 2 h compound pre-incubation, approx. 3×EC50 Pam3CSK4, 18 h, SEAP OD 655 nm, background subtracted
# T1 construct: host or cells: HEK-Blue hTLR2 (HEK-293)
# T1 sequence (O60603 19-784 limits assumed): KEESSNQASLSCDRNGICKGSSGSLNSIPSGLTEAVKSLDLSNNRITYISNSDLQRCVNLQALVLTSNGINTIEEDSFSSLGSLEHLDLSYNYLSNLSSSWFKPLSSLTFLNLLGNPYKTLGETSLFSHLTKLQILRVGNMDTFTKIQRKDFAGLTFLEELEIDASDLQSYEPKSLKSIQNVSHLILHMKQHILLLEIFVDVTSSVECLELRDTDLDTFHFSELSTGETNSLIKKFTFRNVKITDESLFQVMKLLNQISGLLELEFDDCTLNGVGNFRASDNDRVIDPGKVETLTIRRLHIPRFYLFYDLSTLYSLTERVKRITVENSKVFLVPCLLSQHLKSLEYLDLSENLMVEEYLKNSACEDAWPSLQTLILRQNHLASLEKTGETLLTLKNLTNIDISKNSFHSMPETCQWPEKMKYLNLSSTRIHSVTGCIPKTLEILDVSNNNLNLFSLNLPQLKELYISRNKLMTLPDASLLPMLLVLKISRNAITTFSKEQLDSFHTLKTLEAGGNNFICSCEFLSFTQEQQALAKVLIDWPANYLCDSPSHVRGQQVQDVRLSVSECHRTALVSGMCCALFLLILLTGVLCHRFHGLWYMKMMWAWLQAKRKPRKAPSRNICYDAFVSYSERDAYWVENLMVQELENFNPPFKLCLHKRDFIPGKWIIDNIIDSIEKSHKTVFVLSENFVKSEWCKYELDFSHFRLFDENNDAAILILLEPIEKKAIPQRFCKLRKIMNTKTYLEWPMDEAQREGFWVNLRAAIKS
# Description: (§1) Synthetic diacylated lipoprotein (Pam2CSK4, TLR2/6 agonist) and synthetic triacylated lipoprotein (Pam3CSK4, TLR1/2 agonist) were obtained from InvivoGen and were dissolved in endotoxin-free water to a concentration 1 mg/mL, vortexed until complete solubilization, and stored in aliquots at −20° C. Prior to addition to cells, an aliquot of the dissolved ligand was vortexed shortly and then was diluted in medium to 25 ng/mL Pam2CSK4 or 1000 ng/mL Pam3CSK4. The EC50 of the agonists for each assay run was determined by using 3-fold dilutions of each agonist from the following starting concentrations: 5 ng/mL for Pam2CSK4, and 200 ng/mL for Pam3CSK4.
# (§2) Test compounds were solubilized fresh to 10-20 mM stocks in DMSO and sonicated for 5-10 minutes in a water bath sonicator. Serial dilutions were prepared in DMSO, and then diluted in medium. The final concentration of DMSO used in the assay was 1%.
# (§3) HEK-Blue hTLR2 reporter cells (InvivoGen) are HEK-293 cells stably expressing both the human TLR2 gene and a secreted embryonic alkaline phosphatase (SEAP) reporter construct downstream of NFκB promotor sites. HEK-Blue hTLR2 reporters were cultured according to manufacturer's protocol using Dulbecco's Modified Eagle Medium (DMEM; Gibco) containing 1× GlutaMax (Gibco), 10% heat-inactivated Fetal Bovine Serum (Gibco), Pen-Strep (50 U/mL penicillin, 50 μg/mL streptomycin, Gibco), 100 μg/mL Normocin (InvivoGen), and the selective antibiotic, 1× HEK-Blue Selection (InvivoGen). Quanti-Blue reagent (InvivoGen) for detection and quantification of secreted alkaline phosphatase was dissolved in 100 mL of endotoxin-free water, warmed to 37° C. for 30 minutes and then filtered using a 0.2 μm membrane.
# (§4) On day 1, 50 μL of each test compound dilution in duplicates or a vehicle control was added to each well of a 96-well plate followed by addition of 150 μL of HEK-Blue hTLR2 cell suspension (1×10^5 cells/well) and incubated at 37° C./5% CO2 for 2 h. Next, 50 μL of an approximate 3×EC50 concentration of each agonist (Pam2CSK4 or Pam3CSK4) was added to the wells containing test compounds or the vehicle control. The plates were then incubated at 37° C./5% CO2 for 18 h. For each assay run, non-treated HEK-Blue hTLR2 cells were treated with serial dilutions of agonists to determine EC50 values for the respective run.
# (§5) On day 2, secreted alkaline phosphatase (SEAP) activity was detected in cell culture supernatants. In brief, 20 μL was collected from each well and transferred to a 96-well plate. Next, 200 μL of Quanti-Blue detection reagent was added to each well. Plates were incubated at room temperature for 15 min and SEAP activity was assessed by spectrophotometer OD reading at 655 nm. […] The activities of the compounds against Pam2CSK4 and Pam3CSK4 are presented as IC50 values for the response from cells treated with agonists with the background signal subtracted.
# [2] = molecular target: T2, human TLR2 (Pam2CSK4, TLR2/6 agonist) in HEK-Blue hTLR2 cells (Homo sapiens, UniProt O60603); assay: HEK-Blue hTLR2 antagonism assay (SEAP reporter) with Pam2CSK4 as agonist; assay type: cell-based; details: 2 h compound pre-incubation, approx. 3×EC50 Pam2CSK4, 18 h, SEAP OD 655 nm, background subtracted
# T2 construct: host or cells: HEK-Blue hTLR2 (HEK-293)
# T2 sequence (O60603 19-784 limits assumed): as above
# Description: as §1, §2, §3, §4, §5
SMILES,IC50 [1],IC50 [2]
"O=Cc1cc(/C=C/c2ccc(OCC3CC3)cc2)cc(F)c1O [compound 66, (E)-5-(4-(cyclopropylmethoxy)styryl)-3-fluoro-2-hydroxybenzaldehyde]",0.3 µM,0.9 µM
"O=Cc1cc(/C=C/c2ccc3c(c2)CCCO3)cc(F)c1O [compound 68, (E)-5-(2-(chroman-6-yl)vinyl)-3-fluoro-2-hydroxybenzaldehyde]",1.3 µM,1.6 µM
"COc1cc(/C=C/c2ccc(N3CCCCC3)cc2)cc(C=O)c1O [compound 69, (E)-2-hydroxy-3-methoxy-5-(4-(piperidin-1-yl)styryl)benzaldehyde]",0.6 µM,0.7 µM
"O=Cc1c(O)cc(/C=C/c2ccc(N3CCCCC3)cc2)cc1F [compound 71, (E)-2-fluoro-6-hydroxy-4-(4-(piperidin-1-yl)styryl)benzaldehyde]",2.5 µM,13.7 µM
"CCN1CCN(c2ccc(/C=C/c3cc(O)c(C=O)c(F)c3)cc2)CC1 [compound 72, (E)-4-(4-(4-ethylpiperazin-1-yl)styryl)-2-fluoro-6-hydroxybenzaldehyde]",11.2 µM,8.2 µM
"CN1CCN(/N=C/c2cc(/C=C/c3ccc(N4CCCC4)cc3)cc(F)c2O)CC1 [compound 76, 2-fluoro-6-((E)-((4-methylpiperazin-1-yl)imino)methyl)-4-((E)-4-(pyrrolidin-1-yl)styryl)phenol]",0.5 µM,0.4 µM
"Oc1c(F)cc(/C=C/c2ccc(N3CCCC3)cc2)cc1/C=N/c1ccccc1 [compound 78, 2-fluoro-6-((E)-(phenylimino)methyl)-4-((E)-4-(pyrrolidin-1-yl)styryl)phenol]",0.9 µM,1 µM
"Oc1c(F)cc(/C=C/c2ccc(N3CCCC3)cc2)cc1/C=N/Nc1ccccc1 [compound 79, 2-fluoro-6-((E)-(2-phenylhydrazono)methyl)-4-((E)-4-(pyrrolidin-1-yl)styryl)phenol]",6 µM,4.4 µM
"O=S(=O)(N/N=C/c1cc(/C=C/c2ccc(N3CCCC3)cc2)cc(F)c1O)c1ccccc1 [compound 81, N′-((E)-3-fluoro-2-hydroxy-5-((E)-4-(pyrrolidin-1-yl)styryl)benzylidene)benzenesulfonohydrazide]",13.2 µM,16.4 µM
"N=C(N)N/N=C/c1cc(/C=C/c2ccc(N3CCCC3)cc2)cc(F)c1O [compound 83, 2-((E)-3-fluoro-2-hydroxy-5-((E)-4-(pyrrolidin-1-yl)styryl)benzylidene)hydrazine-1-carboximidamide]",88.9 µM,36.7 µM
"COc1cc(/C=C/C(=O)c2ccccc2)cc(C(=O)/C=C/c2ccccc2)c1O [compound 84, (E)-3-(3-cinnamoyl-4-hydroxy-5-methoxyphenyl)-1-phenylprop-2-en-1-one]",3.1 µM,3.4 µM
"C[N+]1([O-])CCN(/N=C/c2cc(/C=C/c3ccc(N4CCCC4)cc3)cc(F)c2O)CC1 [compound 85, 4-(((E)-3-fluoro-2-hydroxy-5-((E)-4-(pyrrolidin-1-yl)styryl)benzylidene)amino)-1-methylpiperazine 1-oxide]",1.9 µM,4.5 µM
"O=Cc1cc(/C=C/c2ccc(N3CCCC3)nc2)cc(F)c1O [compound 86, (E)-3-fluoro-2-hydroxy-5-(2-(6-(pyrrolidin-1-yl)pyridin-3-yl)vinyl)benzaldehyde]",4.1 µM,3.8 µM
"O=Cc1cc(/C=C/c2ccc(N3CCCC3)cn2)cc(F)c1O [compound 87, (E)-3-fluoro-2-hydroxy-5-(2-(5-(pyrrolidin-1-yl)pyridin-2-yl)vinyl)benzaldehyde]",3.3 µM,3.9 µM
"O=C1CN(/N=C/c2cc(/C=C/c3ccc(N4CCCC4)cc3)cc(F)c2O)C(=O)N1 [compound 88, 1-(((E)-3-fluoro-2-hydroxy-5-((E)-4-(pyrrolidin-1-yl)styryl)benzylidene)amino)imidazolidine-2,4-dione]",7.9 µM,11.2 µM
"OCc1cc(/C=C/c2ccc(N3CCCC3)cc2)cc(F)c1O [compound 90, (E)-2-fluoro-6-(hydroxymethyl)-4-(4-(pyrrolidin-1-yl)styryl)phenol]",8.5 µM,5.4 µM
"CCN1CCN(/N=C/c2cc(/C=C/c3ccc(N4CCCC4)cc3)cc(F)c2O)CC1 [compound 93, 2-((E)-((4-ethylpiperazin-1-yl)imino)methyl)-6-fluoro-4-((E)-4-(pyrrolidin-1-yl)styryl)phenol]",3.2 µM,24.5 µM
"Oc1c(F)cc(/C=C/c2ccc(N3CCCC3)cc2)cc1/C=N/N1CCOCC1 [compound 94, 2-fluoro-6-((E)-(morpholinoimino)methyl)-4-((E)-4-(pyrrolidin-1-yl)styryl)phenol]",1.4 µM,2.9 µM

# Further compounds by falling IC50 [1], results first:
IC50 [1],IC50 [2],SMILES
82.1 µM,30.6 µM,"Oc1c(F)cc(/C=C/c2ccc(N3CCCC3)cc2)cc1CNC1CC1 [compound 91, (E)-2-((cyclopropylamino)methyl)-6-fluoro-4-(4-(pyrrolidin-1-yl)styryl)phenol]"
32.3 µM,26.6 µM,"Oc1c(F)cc(/C=C/c2ccc(N3CCCC3)cc2)cc1/C=N/N1CCN(C2CC2)CC1 [compound 92, 2-((E)-((4-cyclopropylpiperazin-1-yl)imino)methyl)-6-fluoro-4-((E)-4-(pyrrolidin-1-yl)styryl)phenol]"
29.6 µM,29.5 µM,"CCO/N=C/c1cc(/C=C/c2ccc(N3CCCC3)cc2)cc(F)c1O [compound 89, (E)-3-fluoro-2-hydroxy-5-((E)-4-(pyrrolidin-1-yl)styryl)benzaldehyde O-ethyl oxime]"
14.8 µM,28.4 µM,"O=C(N/N=C/c1cc(/C=C/c2ccc(N3CCCC3)cc2)cc(F)c1O)c1ccccc1 [compound 80, N′-((E)-3-fluoro-2-hydroxy-5-((E)-4-(pyrrolidin-1-yl)styryl)benzylidene)benzohydrazide]"
7 µM,6.3 µM,"COc1cc(-c2cc3c(s2)CCN(C(=O)C2CC2)C3)cc(C(=O)/C=C/c2ccccc2)c1O [compound 74, (E)-1-(5-(5-(cyclopropanecarbonyl)-4,5,6,7-tetrahydrothieno[3,2-c]pyridin-2-yl)-2-hydroxy-3-methoxyphenyl)-3-phenylprop-2-en-1-one]"
4.8 µM,4.5 µM,"COc1cc(-c2cc3c(s2)CCN(C(=O)C2CC2)C3)cc(/C=C/C(=O)c2ccccc2)c1O [compound 73, (E)-3-(5-(5-(cyclopropanecarbonyl)-4,5,6,7-tetrahydrothieno[3,2-c]pyridin-2-yl)-2-hydroxy-3-methoxyphenyl)-1-phenylprop-2-en-1-one]"
2.1 µM,2.1 µM,"Oc1c(F)cc(/C=C/c2ccc(N3CCCC3)cc2)cc1/C=N/Oc1ccccc1 [compound 82, (E)-3-fluoro-2-hydroxy-5-((E)-4-(pyrrolidin-1-yl)styryl)benzaldehyde O-phenyl oxime]"
1.3 µM,1.2 µM,"Oc1c(F)cc(/C=C/c2ccc(N3CCCC3)cc2)cc1C1OCCCO1 [compound 75, (E)-2-(1,3-dioxan-2-yl)-6-fluoro-4-(4-(pyrrolidin-1-yl)styryl)phenol]"
1.2 µM,1.7 µM,"COc1cc(/C=C/c2ccc3c(c2)CCCO3)cc(C=O)c1O [compound 67, (E)-5-(2-(chroman-6-yl)vinyl)-2-hydroxy-3-methoxybenzaldehyde]"
1.1 µM,1.4 µM,"CC(=O)N/N=C/c1cc(/C=C/c2ccc(N3CCCC3)cc2)cc(F)c1O [compound 77, N′-((E)-3-fluoro-2-hydroxy-5-((E)-4-(pyrrolidin-1-yl)styryl)benzylidene)acetohydrazide]"
0.4 µM,0.9 µM,"O=Cc1cc(/C=C/c2ccc(N3CCCCC3)cc2)cc(F)c1O [compound 70, (E)-3-fluoro-2-hydroxy-5-(4-(piperidin-1-yl)styryl)benzaldehyde]"
